What follows are compounds tested on HCV 1b_Huh-Luc/Neo-ET cell line persistently expressing a bicistronic genotype 1b replicon in Huh 7 cells (assay: HCV replicon assay (luciferase readout)). Details: Hepatitis C virus, Huh-7, 72 h, read-out: Inhibition of HCV genotype 1b.
Assay type: cell-based
How it was run: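 Huh 7 cells carrying a genotype 1b luciferase/neo replicon treated in triplicate for 72 h, then luciferase activity measured. Signal expressed as % of control; EC50 from four-parameter logistic fit, determined several times.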
With `CC(C)(C)OC(=O)N[C@@H](C(=O)N1CCC[C@H]1c1ncc(-c2ccc(C#Cc3ccc(-c4nnc([C@@H]5CCCN5C(=O)[C@H](NC(=O)OC(C)(C)C)c5ccccc5)[nH]4)cc3)cc2)[nH]1)c1ccccc1` [Compound 246] the EC50 was less than 1 nM.
Work on `COC(=O)N[C@@H](C(=O)N1CCC[C@H]1c1ncc(-c2ccc(C#Cc3ccc(-c4nnc([C@@H]5CCCN5C(=O)[C@H](NC(=O)OC)c5ccccc5)[nH]4)cc3)cc2)[nH]1)c1ccccc1` [Compound 247] yielded an EC50 of less than 1 nM.
`O=C(N[C@@H](C(=O)N1CCC[C@H]1c1ncc(-c2ccc(C#Cc3ccc(-c4cnc([C@@H]5CCCN5C(=O)[C@H](NC(=O)N5CCOCC5)c5ccccc5)[nH]4)cc3)cc2)[nH]1)c1ccccc1)N1CCOCC1` [Compound 248] gave an EC50 of less than 1 nM.
Compound `O=C(N[C@@H](C(=O)N1CCC[C@H]1c1ncc(-c2ccc(C#Cc3ccc(-c4cnc([C@@H]5CCCN5C(=O)[C@H](NC(=O)N5CCCC5)c5ccccc5)[nH]4)cc3)cc2)[nH]1)c1ccccc1)N1CCCC1` [Compound 249] has an EC50 of less than 1 nM.
For `O=C(N[C@@H](C(=O)N1CCC[C@H]1c1ncc(-c2ccc(C#Cc3ccc(-c4cnc([C@@H]5CCCN5C(=O)[C@H](NC(=O)N5CCCCC5)c5ccccc5)[nH]4)cc3)cc2)[nH]1)c1ccccc1)N1CCCCC1` [Compound 250], the EC50 was less than 1 nM.
Compound `O=C(N[C@@H](C(=O)N1CCC[C@H]1c1ncc(-c2ccc(C#Cc3ccc(-c4cnc([C@@H]5CCCN5C(=O)[C@H](NC(=O)N5CCC(O)CC5)c5ccccc5)[nH]4)cc3)cc2)[nH]1)c1ccccc1)N1CCC(O)CC1` [Compound 251] has an EC50 of less than 1 nM.
For `O=C(N[C@@H](C(=O)N1CCC[C@H]1c1ncc(-c2ccc(C#Cc3ccc(-c4cnc([C@@H]5CCCN5C(=O)[C@H](NC(=O)N5CC[C@@H](O)C5)c5ccccc5)[nH]4)cc3)cc2)[nH]1)c1ccccc1)N1CC[C@@H](O)C1` [Compound 252], the EC50 was less than 1 nM.
`COC(=O)N[C@@H](C(=O)N1CCC[C@H]1c1ncc(-c2ccc(C#Cc3ccc(-c4cnc([C@@H]5CCCN5C(=O)[C@H](NC(=O)N5CCS(=O)(=O)CC5)c5ccccc5)[nH]4)cc3)cc2)[nH]1)c1ccccc1` [Compound 253] showed an EC50 of less than 1 nM.
With `COC(=O)N[C@@H](C(=O)N1CCC[C@H]1c1ncc(-c2ccc(C#Cc3ccc(-c4cnc([C@@H]5CCCN5C(=O)[C@H](NC(=O)N5CCC[C@@H]5CO)c5ccccc5)[nH]4)cc3)cc2)[nH]1)c1ccccc1` [Compound 254] the EC50 was less than 1 nM.
`COC(=O)N[C@@H](C(=O)N1CCC[C@H]1c1ncc(-c2ccc(C#Cc3ccc(-c4cnc([C@@H]5CCCN5C(=O)[C@H](NC(=O)N5CCC[C@H]5CO)c5ccccc5)[nH]4)cc3)cc2)[nH]1)c1ccccc1` [Compound 255] gave an EC50 of less than 1 nM.
`COC(=O)N[C@@H](C(=O)N1CCC[C@H]1c1ncc(-c2ccc(C#Cc3ccc(-c4cnc([C@@H]5CCCN5C(=O)[C@H](C)c5ccccc5)[nH]4)cc3)cc2)[nH]1)c1ccccc1` [Compound 256] showed an EC50 of less than 1 nM.
For `COC(=O)N[C@@H](C(=O)N1CCC[C@H]1c1ncc(-c2ccc(C#Cc3ccc(-c4cnc([C@@H]5CCCN5C(=O)C5(c6ccccc6)CC5)[nH]4)cc3)cc2)[nH]1)c1ccccc1` [Compound 257], the EC50 was less than 1 nM.
Compound `CC[C@@H](C(=O)N1CCC[C@H]1c1ncc(-c2ccc(C#Cc3ccc(-c4cnc([C@@H]5CCCN5C(=O)[C@H](NC(=O)OC)c5ccccc5)[nH]4)cc3)cc2)[nH]1)c1ccccc1` [Compound 258] has an EC50 of less than 1 nM.
In the case of `COC[C@H]1CCCN1C(=O)N[C@@H](C(=O)N1CCC[C@H]1c1ncc(-c2ccc(C#Cc3ccc(-c4cnc([C@@H]5CCCN5C(=O)[C@H](NC(=O)OC)c5ccccc5)[nH]4)cc3)cc2)[nH]1)c1ccccc1` [Compound 259], the EC50 is reported as less than 1 nM.
With `COC[C@@H]1CCCN1C(=O)N[C@@H](C(=O)N1CCC[C@H]1c1ncc(-c2ccc(C#Cc3ccc(-c4cnc([C@@H]5CCCN5C(=O)[C@H](NC(=O)OC)c5ccccc5)[nH]4)cc3)cc2)[nH]1)c1ccccc1` [Compound 260] the EC50 was less than 1 nM.
`COC(=O)N[C@@H](C(=O)N1CCC[C@H]1c1ncc(-c2ccc(C#Cc3ccc(-c4cnc([C@@H]5CCCN5C(=O)[C@H](NC(=O)N5CCC[C@@H]5C)c5ccccc5)[nH]4)cc3)cc2)[nH]1)c1ccccc1` [Compound 261] gave an EC50 of less than 1 nM.
